Reference: ChEMBL document CHEMBL4765261, “Design, synthesis, and biological evaluation of heterotetracyclic quinolinone derivatives as anticancer agents targeting topoisomerases” (Eur J Med Chem, 2020)
Values belong to the compound of their own block, whether it stands above or below them. Active and inactive are the calls of the source. No cut-off for these calls is given here.

Experiments:
[1] = Cytotoxicity against human MDA-MB-231 cells assessed as reduction in cell viability at 10 uM after 72 hrs by MTT assay relative to control; assay type: cell-based; settings: read-out: INH
MDA-MB-231 [2] = experiment: Induction of DNA damage in human MDA-MB-231 cells assessed as phosphorylation of Ser 139 of histone H2AX measured after 24 hrs by western blotting analysis; assay type: functional, cell-based
[3] = target: T1, DNA topoisomerase 1 (Homo sapiens) (UniProt P11387); experiment: Inhibition of human recombinant topoisomerase 1 expressed in baculovirus-infected insect cells assessed as inhibition of DNA relaxation at 3 uM incubated for 30 mins by ethidium bromide staining based agarose gel electrophoresis method
T1 sequence (whole entry): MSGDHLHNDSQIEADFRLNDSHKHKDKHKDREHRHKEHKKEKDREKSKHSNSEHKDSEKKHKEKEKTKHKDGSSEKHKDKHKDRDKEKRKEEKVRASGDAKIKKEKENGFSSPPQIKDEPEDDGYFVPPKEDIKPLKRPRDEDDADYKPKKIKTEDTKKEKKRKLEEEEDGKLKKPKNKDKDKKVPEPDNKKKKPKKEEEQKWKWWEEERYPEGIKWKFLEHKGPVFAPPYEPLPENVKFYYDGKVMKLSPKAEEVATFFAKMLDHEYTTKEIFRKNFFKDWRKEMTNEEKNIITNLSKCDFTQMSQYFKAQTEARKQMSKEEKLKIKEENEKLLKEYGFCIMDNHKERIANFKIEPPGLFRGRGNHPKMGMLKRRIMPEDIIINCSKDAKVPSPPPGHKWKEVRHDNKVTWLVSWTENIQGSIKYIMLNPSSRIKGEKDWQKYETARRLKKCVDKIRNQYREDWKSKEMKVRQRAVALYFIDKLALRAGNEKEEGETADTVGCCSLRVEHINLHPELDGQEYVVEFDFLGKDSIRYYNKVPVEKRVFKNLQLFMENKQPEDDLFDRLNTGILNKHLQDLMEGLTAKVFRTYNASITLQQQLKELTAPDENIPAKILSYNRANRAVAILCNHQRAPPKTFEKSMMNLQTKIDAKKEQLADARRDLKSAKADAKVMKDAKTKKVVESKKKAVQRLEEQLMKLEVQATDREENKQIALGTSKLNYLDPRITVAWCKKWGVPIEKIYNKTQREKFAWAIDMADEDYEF

[4] = target: DNA topoisomerase 2-alpha (Homo sapiens) (UniProt P11388); experiment: Inhibition of human recombinant topoisomerase 2alpha expressed in baculovirus-infected insect cells assessed as inhibition of DNA relaxation at 1 uM incubated for 45 mins by ethidium bromide staining based agarose gel electrophoresis method
MDA-MB-231 [5] = experiment: Cell cycle arrest in human MDA-MB-231 cells assessed as accumulation at sub-G1 phase at 2 uM after 24 hrs by propidium iodide staining-based flow cytometric analysis (reference value: 0.72%); assay type: functional
MCF-10A [6] = experiment: Induction of cell cycle arrest in human MCF-10A cells assessed as increase in accumulation of cells at sub-G1 phase at 2.5 uM incubated for 24 hrs by propidium iodide based flow cytometry analysis
MDA-MB-231 [7] = experiment: Anticancer activity against human MDA-MB-231 cells assessed as inhibition of cell proliferation measured after 72 hrs by MTT assay; assay type: functional, cell-based; settings: MDA-MB-231, 72 h
MDA-MB-231 [8] = experiment: Antiproliferative activity against human […] at 2.5 uM after 72 hrs by MTT assay relative to control; assay type: functional, cell-based
MCF7 = experiment: Anticancer activity against human MCF7 cells assessed as inhibition of cell proliferation measured after 72 hrs by MTT assay; assay type: functional, cell-based; settings: MCF7, 72 h
MDA-MB-231 [9] = experiment: Induction of apoptosis in human MDA-MB-231 cells assessed as increase in cleaved caspase-8 level incubated for 24 hrs by Western blot analysis; assay type: functional, cell-based
[10] = target: T1, DNA topoisomerase 1 (Homo sapiens); experiment: Inhibition of human recombinant topoisomerase 1 expressed in baculovirus-infected insect cells assessed as inhibition of DNA relaxation at 1 uM incubated for 30 mins by ethidium bromide staining based agarose gel electrophoresis method
NCI-H1299 = experiment: Anticancer activity against human H1299 cells assessed as inhibition of cell proliferation measured after 72 hrs by MTT assay; assay type: functional, cell-based; settings: NCI-H1299, 72 h
MCF-10A [11] = experiment: Antiproliferative activity against human MCF-10A cells at 2.5 uM after 72 hrs by MTT assay relative to control; assay type: cell-based
[12] = target: T1, DNA topoisomerase 1 (Homo sapiens); experiment: Inhibition of human recombinant topoisomerase 1 expressed in baculovirus-infected insect cells assessed as inhibition of DNA relaxation at 10 uM incubated for 30 mins by ethidium bromide staining based agarose gel electrophoresis method
MDA-MB-231 [13] = experiment: Induction of cell cycle arrest in human […] assessed as increase in accumulation of cells at sub-G1 phase at 2.5 uM incubated for 24 hrs by propidium iodide based flow cytometry analysis; assay type: functional
MDA-MB-231 [14] = experiment: Induction of apoptosis in human MDA-MB-231 cells assessed as increase in cleaved caspase-9 level incubated for 24 hrs by Western blot analysis; assay type: functional, cell-based
MDA-MB-231 [15] = experiment: Cell cycle arrest in human MDA-MB-231 assessed as increase accumulation at G2/M phase incubated for 12 hrs by propidium iodide staining based flow cytometric analysis relative to control; assay type: functional
[16] = target: DNA topoisomerase 2-alpha (Homo sapiens) (UniProt P11388); experiment: Poison activity at human recombinant topoisomerase II alpha in human MDA-MB-231 cells assessed as increase in chromatin incubated for 30 mins by Western blot analysis; assay type: cell-based
[17] = target: T1, DNA topoisomerase 1 (Homo sapiens); experiment: Poison activity at human recombinant topoisomerase I assessed as accumulation of supercoiled DNA by measuring restricted DNA mobility at 30 uM measured after 30 mins by ethidium bromide staining based agarose gel electrophoresis
MDA-MB-231 [18] = experiment: Cell cycle arrest in human MDA-MB-231 cells assessed as accumulation at sub-G1 phase at 4 uM after 24 hrs by propidium iodide staining based flow cytometric analysis (reference value: 0.72%); assay type: functional
MDA-MB-468 = experiment: Anticancer activity against human MDA-MB-468 cells assessed as inhibition of cell proliferation measured after 72 hrs by MTT assay; assay type: functional, cell-based; settings: MDA-MB-468, 72 h
[19] = target: DNA topoisomerase 2-alpha (Homo sapiens) (UniProt P11388); experiment: Inhibition of human recombinant topoisomerase 2alpha expressed in baculovirus-infected insect cells assessed as inhibition of DNA relaxation at 3 uM incubated for 45 mins by ethidium bromide staining based agarose gel electrophoresis method
[20] = target: T1, DNA topoisomerase 1 (Homo sapiens); experiment: Poison activity at human recombinant topoisomerase I assessed as accumulation of supercoiled DNA at 10 uM measured after 30 mins by ethidium bromide staining based agarose gel electrophoresis
HCT-116 = experiment: Anticancer activity against human HCT-116 cells assessed as inhibition of cell proliferation measured after 72 hrs by MTT assay; assay type: functional, cell-based; settings: HCT-116, 72 h
[21] = target: T1, DNA topoisomerase 1 (Homo sapiens); experiment: Poison activity at human recombinant topoisomerase I in human MDA-MB-231 cells assessed as increase in chromatin incubated for 30 mins by Western blot analysis; assay type: cell-based
MDA-MB-231 [22] = experiment: Cell cycle arrest in human MDA-MB-231 cells assessed as accumulation at sub-G1 phase at 10 uM after 24 hrs by propidium iodide staining-based flow cytometric analysis (reference value: 0.72%); assay type: functional
MDA-MB-231 [23] = experiment: Cell cycle arrest in human MDA-MB-231 cells assessed as accumulation at sub-G1 phase at 20 uM after 24 hrs by propidium iodide staining based flow cytometric analysis (reference value: 0.72%); assay type: functional

Sequence of DNA topoisomerase 2-alpha (Homo sapiens) (P11388 whole entry): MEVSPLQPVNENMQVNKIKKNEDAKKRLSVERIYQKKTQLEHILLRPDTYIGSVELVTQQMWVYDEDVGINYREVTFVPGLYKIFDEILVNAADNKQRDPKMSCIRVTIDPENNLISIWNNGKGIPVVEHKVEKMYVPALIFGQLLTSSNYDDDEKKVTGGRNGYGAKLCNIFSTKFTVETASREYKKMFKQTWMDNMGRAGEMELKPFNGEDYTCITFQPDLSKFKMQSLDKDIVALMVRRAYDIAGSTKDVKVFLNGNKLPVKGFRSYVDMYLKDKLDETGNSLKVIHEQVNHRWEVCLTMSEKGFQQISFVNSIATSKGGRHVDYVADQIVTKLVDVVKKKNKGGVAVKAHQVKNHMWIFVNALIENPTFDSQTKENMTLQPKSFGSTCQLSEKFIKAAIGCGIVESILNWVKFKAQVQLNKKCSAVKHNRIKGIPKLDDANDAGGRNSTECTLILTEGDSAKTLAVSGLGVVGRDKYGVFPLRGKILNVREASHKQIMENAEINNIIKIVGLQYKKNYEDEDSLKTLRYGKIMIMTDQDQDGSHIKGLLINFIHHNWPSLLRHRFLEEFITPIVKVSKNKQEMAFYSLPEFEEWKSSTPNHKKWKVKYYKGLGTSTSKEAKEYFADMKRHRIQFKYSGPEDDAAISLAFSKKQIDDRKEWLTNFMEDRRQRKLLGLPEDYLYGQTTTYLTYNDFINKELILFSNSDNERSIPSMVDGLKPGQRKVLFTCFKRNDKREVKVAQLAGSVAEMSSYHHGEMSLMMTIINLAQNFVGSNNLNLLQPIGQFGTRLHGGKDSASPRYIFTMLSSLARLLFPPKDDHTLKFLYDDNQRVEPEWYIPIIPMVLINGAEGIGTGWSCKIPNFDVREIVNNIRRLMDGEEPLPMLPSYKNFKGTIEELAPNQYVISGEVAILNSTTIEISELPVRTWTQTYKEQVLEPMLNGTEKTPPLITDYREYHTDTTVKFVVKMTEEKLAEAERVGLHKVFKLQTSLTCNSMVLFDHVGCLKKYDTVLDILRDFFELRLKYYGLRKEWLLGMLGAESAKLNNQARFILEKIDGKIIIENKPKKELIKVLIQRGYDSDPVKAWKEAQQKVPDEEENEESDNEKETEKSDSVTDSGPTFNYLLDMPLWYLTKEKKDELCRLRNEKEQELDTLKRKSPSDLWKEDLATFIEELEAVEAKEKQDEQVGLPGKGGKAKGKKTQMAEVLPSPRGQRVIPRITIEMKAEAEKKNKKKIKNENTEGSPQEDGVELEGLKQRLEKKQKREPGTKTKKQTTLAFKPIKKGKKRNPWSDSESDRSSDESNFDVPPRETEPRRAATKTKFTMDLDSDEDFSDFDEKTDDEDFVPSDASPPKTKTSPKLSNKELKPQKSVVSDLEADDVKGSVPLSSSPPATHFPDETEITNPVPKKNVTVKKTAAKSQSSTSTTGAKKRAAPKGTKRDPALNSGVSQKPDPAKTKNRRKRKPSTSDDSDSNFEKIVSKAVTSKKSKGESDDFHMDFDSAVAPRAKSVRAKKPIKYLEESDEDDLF

Structure (SMILES): CCNc1nc2ccccc2c2c(=O)c3cccc(F)c3sc12
- cytotoxicity at 72 h, 10 µM [1]: < 20%

- inhibition of DNA relaxation (active/inactive) [3]: Active
- inhibition [4]: 100%
- Activity (MCF-10A [6]): 1.6%
- IC50 (MDA-MB-231 [7]): 1.14 µM
- IC50 (MCF7): 0.8 µM
- inhibition [10]: Active
- IC50 (NCI-H1299): 0.53 µM
- inhibition [12]: 100%
- IC50 (MDA-MB-468): 220 nM
- inhibition [19]: Active
- IC50 (HCT-116): 0.53 µM
Structure (SMILES): NCCNc1nc2ccccc2c2c(=O)c3cc(F)cc(Cl)c3sc12
- Activity (MDA-MB-231 [2]): Active
- Activity (MDA-MB-231 [5]): 3.6%
- Activity (MDA-MB-231 [8]): Active
- cytotoxicity at 72 h, 10 µM [1]: > 95%
- Activity (MDA-MB-231 [9]): Active
- Activity (MCF-10A [11]): Non-Toxic
- Activity (MDA-MB-231 [13]): 70.2%
- Activity (MDA-MB-231 [14]): Active
- Activity (MDA-MB-231 [15]): Active
- Activity [16]: Active
- Activity [17]: Active
- Activity (MDA-MB-231 [18]): 39.4%
- Activity [20]: Active
- Activity [21]: Active

Structure (SMILES): CCNc1nc2ccccc2c2c(=O)c3cc(C)ccc3sc12
- cytotoxicity at 72 h, 10 µM [1]: 21%

Structure (SMILES): Cc1ccc2sc3c(NCc4ccccc4)nc4ccccc4c3c(=O)c2c1
- cytotoxicity at 72 h, 10 µM [1]: 21%

Structure (SMILES): CCCNc1nc2ccccc2c2c(=O)c3ccc(Cl)cc3sc12
- cytotoxicity at 72 h, 10 µM [1]: < 20%

- Activity [12]: Active
Structure (SMILES): CCCNc1nc2ccccc2c2c(=O)c3cc(OC)ccc3sc12
- cytotoxicity at 72 h, 10 µM [1]: < 20%

Structure (SMILES): CCCNc1nc2ccccc2c2c(=O)c3c(Cl)cccc3sc12
- cytotoxicity at 72 h, 10 µM [1]: < 20%

- inhibition of DNA relaxation (active/inactive) [3]: Active
- IC50 (MDA-MB-231 [7]): 3.39 µM
- IC50 (MCF7): 4.36 µM
- inhibition [10]: Active
- IC50 (NCI-H1299): 4.73 µM
- IC50 (MDA-MB-468): 1090 nM
- inhibition [19]: Active
- IC50 (HCT-116): 3.54 µM
Structure (SMILES): NCCCNc1nc2ccccc2c2c(=O)c3cc(Cl)ccc3sc12
- cytotoxicity at 72 h, 10 µM [1]: > 95%

Structure (SMILES): CCCNc1nc2ccccc2c2c(=O)c3cc(Cl)ccc3sc12
- cytotoxicity at 72 h, 10 µM [1]: 21%

- inhibition of DNA relaxation (active/inactive) [3]: Active
- IC50 (MDA-MB-231 [7]): 3.69 µM
- IC50 (MCF7): > 5 µM
- inhibition [10]: Active
- IC50 (NCI-H1299): > 5 µM
- inhibition [12]: 100%
- IC50 (MDA-MB-468): 2890 nM
- inhibition [19]: Active
- IC50 (HCT-116): 4.22 µM
Structure (SMILES): Cc1ccc2sc3c(NCCCN)nc4ccccc4c3c(=O)c2c1
- cytotoxicity at 72 h, 10 µM [1]: > 95%

Structure (SMILES): CCNc1nc2ccccc2c2c(=O)c3cc(F)cc(Cl)c3sc12
- cytotoxicity at 72 h, 10 µM [1]: 21%

Structure (SMILES): CCNc1nc2ccccc2c2c(=O)c3cccc(OC)c3sc12
- cytotoxicity at 72 h, 10 µM [1]: 21%

Structure (SMILES): O=c1c2cccc(F)c2sc2c(NCc3ccccc3)nc3ccccc3c12
- cytotoxicity at 72 h, 10 µM [1]: < 20%

Structure (SMILES): COc1ccc(CNc2nc3ccccc3c3c(=O)c4cc(Cl)ccc4sc23)cc1
- cytotoxicity at 72 h, 10 µM [1]: 21%

Structure (SMILES): CCCNc1nc2ccccc2c2c(=O)c3cccc(Cl)c3sc12
- cytotoxicity at 72 h, 10 µM [1]: < 20%

Structure (SMILES): O=c1c2cc(F)ccc2sc2c(NCc3cccnc3)nc3ccccc3c12
- cytotoxicity at 72 h, 10 µM [1]: 21%

- inhibition of DNA relaxation (active/inactive) [3]: Active
- IC50 (MDA-MB-231 [7]): 2.9 µM
- IC50 (MCF7): 3.98 µM
- inhibition [10]: Active
- IC50 (NCI-H1299): 3.02 µM
- inhibition [12]: 100%
- IC50 (MDA-MB-468): 1240 nM
- inhibition [19]: Active
- IC50 (HCT-116): 3.05 µM
Structure (SMILES): NCCCNc1nc2ccccc2c2c(=O)c3cc(F)ccc3sc12
- cytotoxicity at 72 h, 10 µM [1]: > 95%

Structure (SMILES): COc1cccc2c(=O)c3c(sc12)c(NCc1ccccc1)nc1ccccc13
- cytotoxicity at 72 h, 10 µM [1]: 21%

Structure (SMILES): CCCNc1nc2ccccc2c2c(=O)c3cc(F)ccc3sc12
- cytotoxicity at 72 h, 10 µM [1]: 21%

Structure (SMILES): O=c1c2cc(F)ccc2sc2c(NCc3ccccc3)nc3ccccc3c12
- cytotoxicity at 72 h, 10 µM [1]: 21%

- inhibition of DNA relaxation (active/inactive) [3]: Active
- inhibition [4]: 100%
- IC50 (MDA-MB-231 [7]): 2.19 µM
- IC50 (MCF7): 4.49 µM
- inhibition [10]: Active
- IC50 (NCI-H1299): 3.69 µM
- inhibition [12]: 100%
- IC50 (MDA-MB-468): 270 nM
- inhibition [19]: Active
- IC50 (HCT-116): 2.51 µM
Structure (SMILES): NCCCNc1nc2ccccc2c2c(=O)c3cccc(Cl)c3sc12
- cytotoxicity at 72 h, 10 µM [1]: > 95%
- Activity (MDA-MB-231 [22]): 9.8%
- Activity (MDA-MB-231 [23]): 35.7%

Structure (SMILES): O=C(Nc1nc2ccccc2c2c(=O)c3cc(Cl)ccc3sc12)c1ccccn1
- cytotoxicity at 72 h, 10 µM [1]: < 20%

- inhibition of DNA relaxation (active/inactive) [3]: Active
- IC50 (MDA-MB-231 [7]): 4.5 µM
- IC50 (MCF7): > 5 µM
- inhibition [10]: Active
- IC50 (NCI-H1299): > 5 µM
- inhibition [12]: 100%
- IC50 (MDA-MB-468): 3040 nM
- inhibition [19]: Active
- IC50 (HCT-116): > 5 µM
Structure (SMILES): COc1ccc2sc3c(NCCCN)nc4ccccc4c3c(=O)c2c1
- cytotoxicity at 72 h, 10 µM [1]: > 95%
